Our source for the logP values is patent US20160075653A1, “NEMATICIDAL N-(PHENYLCYCLOALKYL)CARBOXAMIDES AND N-(PHENYLCYCLOALKYL)THIOCARBOXAMIDES” (BAYER CROPSCIENCE AKTIENGESELLSCHAFT, priority 2013, published 2016).

A short description of the series: Measurement of log P values by HPLC on reversed phase columns (methods [a] pH 2.3, [b] pH 2.7, [c] pH 7.8). It counts as physicochemical. Particulars: HPLC on reversed phase column. The essentials: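 Retention times were converted to log P by linear interpolation between linear alkan-2-one standards (3 to 16 carbons) of known log P. Eluents, each with 10% to 95% acetonitrile gradient: phosphoric acid 0.1% at pH 2.3 [a]; formic acid 0.1% at pH 2.7, LC-MS [b]; ammonium hydrogen carbonate 0.001 molar at pH 7.8, LC-MS [c].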

With `O=C(N[C@@H]1CC[C@@H]1c1cccc(F)c1C(F)(F)F)c1sccc1I` (relative stereo) [Example 628], the logP (method [b], pH 2.7) was 3.65^[b]. The same measure, in the same setting: next, `O=C(N[C@@H]1CC[C@H]1c1cccc(F)c1C(F)(F)F)c1ccccc1[N+](=O)[O-]` (relative stereo) [Example 629]: 3.18^[b].

For the molecule `O=C(N[C@@H]1CC[C@H]1c1cccc(F)c1C(F)(F)F)c1ccccc1Br` (relative stereo) [Example 632], where the note is “method [b], pH 2.7”, the logP was 3.57^[b].

As for `Cc1nc(C(F)(F)F)c(C(=O)N[C@@H]2CC[C@H]2c2ccccc2C(F)(F)F)s1` (relative stereo) [Example 633], the logP (method [b], pH 2.7) is 3.49^[b]. Regarding `Cc1nc(C(F)(F)F)c(C(=O)N[C@@H]2CC[C@@H]2c2ccccc2C(F)(F)F)s1` (relative stereo) [Example 634], the logP (method [b], pH 2.7) is 3.34^[b]. In the case of `O=C(N[C@@H]1CC[C@H]1c1ccccc1C(F)(F)F)c1sccc1I` (relative stereo) [Example 635], the logP (method [b], pH 2.7) is 3.99^[b].

Take `O=C(N[C@@H]1CC[C@@H]1c1ccccc1C(F)(F)F)c1sccc1I` (relative stereo) [Example 636]: the logP (method [b], pH 2.7) was 3.83^[b].

With `O=C(N[C@@H]1CC[C@H]1c1ccccc1C(F)(F)F)c1ccccc1[N+](=O)[O-]` (relative stereo) [Example 637], the logP (method [b], pH 2.7) was 3.13^[b].

Regarding `O=C(N[C@@H]1CC[C@H]1c1cccc(F)c1C(F)(F)F)c1c(F)cccc1F` (relative stereo) [Example 640], for the setting “method [b], pH 2.7”, the logP is 3.36^[b]. For the molecule `Cn1cc(C(=O)N[C@@H]2CC[C@@H]2c2cccc(F)c2C(F)(F)F)c(C(F)F)n1` (relative stereo) [Example 643], where the note is “method [b], pH 2.7”, the logP is 2.75^[b].

As to `Cn1cc(C(=O)N[C@@H]2CC[C@H]2c2cccc(F)c2C(F)(F)F)c(C(F)F)n1` (relative stereo) [Example 644], the logP (method [b], pH 2.7) was 2.99^[b]. On the same count and under the same terms, under `O=C(N[C@@H]1CC[C@H]1c1cccc(F)c1C(F)(F)F)c1nccnc1Cl` (relative stereo) [Example 646] stands 3.10^[b].

For the molecule `O=C(N[C@@H]1CC[C@H]1c1cccc(F)c1C(F)(F)F)c1cccnc1Cl` (relative stereo) [Example 648], the logP (method [b], pH 2.7) was 2.86^[b]. With `N#Cc1ccccc1C(=O)N[C@@H]1C[C@@H]1c1ccc(Cl)cc1Cl` (relative stereo) [Example 650], the logP (method [b], pH 2.7) was 2.72^[b] and the logP (method [c], pH 7.8) was 2.70^[c];. The like results for `O=C(N[C@@H]1CC[C@H]1c1ccc(Br)cc1C(F)(F)F)c1ccccc1C(F)(F)F` (relative stereo) [Example 655] were, in that order, 4.26^[b] and 4.19^[c];. `O=C(N[C@@H]1CC[C@@H]1c1ccc(Br)cc1C(F)(F)F)c1ccccc1C(F)(F)F` (relative stereo) [Example 656]: the logP is, setting by setting: (method [b], pH 2.7) 4.02^[b]; (method [c], pH 7.8) 3.94^[c];. In the case of `O=C(N[C@@H]1CC[C@@H]1c1ccc(Br)cc1C(F)(F)F)c1cccnc1C(F)(F)F` (relative stereo) [Example 657], the logP runs as follows: (method [b], pH 2.7) 3.52^[b]; (method [c], pH 7.8) 3.42^[c];.

As for `O=C(N[C@@H]1CC[C@H]1c1ccc(Br)cc1C(F)(F)F)c1cccnc1C(F)(F)F` (relative stereo) [Example 658], the logP reads like this: (method [b], pH 2.7) 3.76^[b]; (method [c], pH 7.8) 3.66^[c];. As for `O=C(N[C@@H]1CC[C@@H]1c1ccc(Br)cc1C(F)(F)F)c1nccnc1C(F)(F)F` (relative stereo) [Example 659], the logP (method [b], pH 2.7) is 3.72^[b] and the logP (method [c], pH 7.8) is 3.62^[c];. Turning to `O=C(N[C@@H]1CC[C@H]1c1ccc(Br)cc1C(F)(F)F)c1nccnc1C(F)(F)F` (relative stereo) [Example 660], the logP (method [b], pH 2.7) is 3.97^[b] and the logP (method [c], pH 7.8) was 3.87^[c];. Consider `O=C(N[C@@H]1CC[C@@H]1c1ccc(Cl)cc1Cl)c1ccccc1[N+](=O)[O-]` (relative stereo) [Example 661], for which the logP (method [b], pH 2.7) is 3.19^[b]. Still for that read-out and setting: under `O=C(N[C@@H]1CC[C@H]1c1ccc(Cl)cc1Cl)c1cccnc1` (relative stereo) [Example 662] stands 2.58^[b]; under `O=C(N[C@@H]1CC[C@@H]1c1ccc(Cl)cc1Cl)c1cccnc1Cl` (relative stereo) [Example 663], 2.84^[b]; under `O=C(N[C@@H]1CC[C@H]1c1cccc(F)c1C(F)(F)F)c1cccnc1` (relative stereo) [Example 664], 2.38^[b]. As for `O=C(N[C@@H]1CC[C@H]1c1ccc(Cl)cc1C(F)(F)F)c1ccc(Cl)cc1Cl` (relative stereo) [Example 665], the logP (method [b], pH 2.7) is 4.55^[b]. For the molecule `O=C(N[C@@H]1CC[C@@H]1c1ccc(Cl)cc1C(F)(F)F)c1ccccc1Cl` (relative stereo) [Example 666], for the setting “method [b], pH 2.7”, the logP is 3.75^[b]. The same measure, in the same setting: next, `O=C(N[C@@H]1CC[C@@H]1c1ccc(Cl)cc1C(F)(F)F)c1ncc(C(F)(F)F)cc1Cl` (relative stereo) [Example 667]: 4.33^[b]; `Cc1nc(C(F)(F)F)c(C(=O)N[C@@H]2CC[C@H]2c2ccc(Cl)cc2Cl)s1` (relative stereo) [Example 668]: 3.91^[b]; `Cc1nc(C(F)(F)F)c(C(=O)N[C@@H]2CC[C@@H]2c2ccc(Cl)cc2Cl)s1` (relative stereo) [Example 669]: 3.58^[b].

For the molecule `O=C(N[C@@H]1CC[C@H]1c1ccc(Cl)cc1Cl)c1sccc1I` (relative stereo) [Example 670], the logP (method [b], pH 2.7) is 4.51^[b]. On the same count and under the same terms, under `O=C(N[C@@H]1CC[C@@H]1c1ccc(Cl)cc1Cl)c1sccc1I` (relative stereo) [Example 671] stands 4.20^[b]. On the same count and under the same terms, next, `O=C(N[C@@H]1CC[C@H]1c1ccc(Cl)cc1Cl)c1ccccc1[N+](=O)[O-]` (relative stereo) [Example 672]: 3.47^[b]; `O=C(N[C@@H]1CC[C@@H]1c1ccc(Cl)cc1Cl)c1cccnc1` (relative stereo) [Example 673]: 2.23^[b].

Turning to `O=C(N[C@@H]1CC[C@H]1c1ccc(Cl)cc1Cl)c1cccnc1Cl` (relative stereo) [Example 674], the logP (method [b], pH 2.7) was 3.16^[b]. Still for that read-out and setting: under `O=C(N[C@@H]1CC[C@H]1c1ccc(Cl)cc1Cl)c1nccnc1Cl` (relative stereo) [Example 675] stands 3.43^[b]; under `O=C(N[C@@H]1CC[C@@H]1c1ccc(Cl)cc1Cl)c1nccnc1Cl` (relative stereo) [Example 676], 3.05^[b]. On the same count and under the same terms, under `O=C(N[C@@H]1CC[C@H]1c1ccc(Cl)cc1C(F)(F)F)c1ccccc1I` (relative stereo) [Example 677] stands 4.20^[b]; under `O=C(N[C@@H]1CC[C@@H]1c1ccc(Cl)cc1C(F)(F)F)c1ccccc1I` (relative stereo) [Example 678], 3.90^[b]. As for `O=C(N[C@@H]1CC[C@H]1c1ccc(Cl)cc1C(F)(F)F)c1ccccc1` (relative stereo) [Example 679], for the setting “method [b], pH 2.7”, the logP was 3.87^[b]. The same measure, in the same setting: under `O=C(N[C@@H]1CC[C@@H]1c1ccc(Cl)cc1C(F)(F)F)c1ccccc1` (relative stereo) [Example 680] stands 3.51^[b]. On the same count and under the same terms, next, `O=C(N[C@@H]1CC[C@H]1c1ccc(Cl)cc1C(F)(F)F)c1ccccc1Cl` (relative stereo) [Example 697]: 4.01^[b]; `O=C(N[C@@H]1CC[C@H]1c1ccc(Cl)cc1C(F)(F)F)c1ncccc1Cl` (relative stereo) [Example 698]: 3.84^[b]; `O=C(N[C@@H]1CC[C@@H]1c1ccc(Cl)cc1C(F)(F)F)c1ncccc1Cl` (relative stereo) [Example 699]: 3.49^[b].

Consider `O=C(N[C@@H]1CC[C@H]1c1ccc(Cl)cc1C(F)(F)F)c1ncc(C(F)(F)F)cc1Cl` (relative stereo) [Example 700], for which the logP (method [b], pH 2.7) was 4.65^[b].

For the molecule `O=C(N[C@@H]1CC[C@H]1c1ccc(Cl)cc1C(F)(F)F)c1c(F)cccc1F` (relative stereo) [Example 701], the logP (method [b], pH 2.7) is 3.75^[b]. Still for that read-out and setting: next, `O=C(N[C@@H]1CC[C@@H]1c1ccc(Cl)cc1C(F)(F)F)c1c(F)cccc1F` (relative stereo) [Example 702]: 3.52^[b]; `O=C(N[C@@H]1CC[C@H]1c1ccc(Cl)cc1C(F)(F)F)c1ccccc1C(F)(F)F` (relative stereo) [Example 703]: 4.10^[b]. Turning to `O=C(N[C@@H]1CC[C@@H]1c1ccc(Cl)cc1C(F)(F)F)c1ccccc1C(F)(F)F` (relative stereo) [Example 704], the logP (method [b], pH 2.7) was 3.84^[b]. Still for that read-out and setting: under `O=C(N[C@@H]1CC[C@@H]1c1ccc(Cl)cc1C(F)(F)F)c1ccc(Cl)cc1Cl` (relative stereo) [Example 705] stands 4.27^[b]. Same read-out and setting: next, `O=C(N[C@@H]1CC[C@H]1c1ccc(Cl)cc1C(F)(F)F)c1ccc(Cl)cc1` (relative stereo) [Example 706]: 4.43^[b]. On the same count and under the same terms, under `O=C(N[C@@H]1CC[C@@H]1c1ccc(Cl)cc1C(F)(F)F)c1ccc(Cl)cc1` (relative stereo) [Example 707] stands 4.04^[b]. As to `O=C(N[C@@H]1CC[C@H]1c1ccc(Cl)cc1C(F)(F)F)c1cccc(Cl)c1` (relative stereo) [Example 708], the logP (method [b], pH 2.7) was 4.46^[b]. The same measure, in the same setting: under `O=C(N[C@@H]1CC[C@@H]1c1ccc(Cl)cc1C(F)(F)F)c1cccc(Cl)c1` (relative stereo) [Example 709] stands 4.05^[b]; under `O=C(N[C@@H]1CC[C@H]1c1ccc(Cl)cc1C(F)(F)F)c1ccccc1[N+](=O)[O-]` (relative stereo) [Example 712], 3.61^[b]. Still for that read-out and setting: next, `O=C(N[C@@H]1CC[C@@H]1c1ccc(Cl)cc1C(F)(F)F)c1ccccc1[N+](=O)[O-]` (relative stereo) [Example 713]: 3.36^[b]; `O=C(N[C@@H]1CC[C@@H]1c1ccc(Cl)cc1C(F)(F)F)c1cccnc1` (relative stereo) [Example 714]: 2.50^[b].
